In patent US20060159829A1, “Consumer product for enhancing mental focus” (Conopco Inc, d/b/a UNILEVER, priority 2004, published 2006):

Assays:
[1] = tested on: spoilage yeasts or moulds; assay: Antimicrobial effect of cinnamic acid at low and neutral pH; format: cell-based; details: 100 ppm
[2] = cited from earlier work

SMILES | effect on growth of spoilage yeasts or moulds ([1]; neutral pH) | effect on growth of spoilage yeasts or moulds ([1]; pH 3.0) | pKa [2]
O=C(O)C=Cc1ccccc1 [cinnamic acid] | entirely without effect | completely extinguish growth | 
O=S(O)O [sulphite] |  |  | 1.88
